{"source": "patent US8318912B2", "about": "“Targeted immune conjugate comprising an antibody to glycophorin A and a M2e peptide” (priority 2006, dated 2012)", "origin": "cited, not measured here", "target": "vitamin B12-binding protein", "conditions": "alternative docking pair to biotin-avidin; read-out: Kd of vitamin B12 bound by vitamin B12-binding protein"}
{"substance": "cyanocobalamin [vitamin B12]", "values": [{"measurement": "Kd", "value": 0.1, "unit": "nM"}]}
